Measured values taken from the supplement of paper PMC6045584.
± gives the standard deviation of the averaged measurements.

Legend:
AFIMOXIFENE = compound: CC/C(=C(\c1ccc(O)cc1)c1ccc(OCCN(C)C)cc1)c1ccccc1 [AFIMOXIFENE]; assay: surviving fraction relative to DMSO-only wells; higher = less growth inhibition; details: exposure time: 5 days
How it was run: (§1)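 Each tumour cell line was screened three times, and only lines with replicate Pearson r >0.7 and median Z' >0.3 were kept. Cells in log phase were seeded at 250–500 per well in 384-well plates, left 24 hours, then exposed continuously for five days to inhibitors at 0.5, 1, 5, 10, 50, 100, 500 and 1000 nM. Viability was read as CellTiter-Glo luminescence, with surviving fraction normalised to the median of DMSO-only wells.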

[1] = compound: CCc1cc(Nc2nccc(-c3c(-c4ccc(OC)c(C(=O)Nc5c(F)cccc5F)c4)nc4ccccn34)n2)c(OC)cc1N1CCC(N2CCN(S(C)(=O)=O)CC2)CC1; assay: as above; details: exposure time: 5 days
How it was run: as §1

Test System: CCK81 LARGE INTESTINE
- surviving fraction (AFIMOXIFENE; 0.5 nM): 0.822 ± 0.1
- surviving fraction (AFIMOXIFENE; 1 nM): 0.889 ± 0.095
- surviving fraction (AFIMOXIFENE; 5 nM): 0.866 ± 0.083
- surviving fraction (AFIMOXIFENE; 10 nM): 0.822 ± 0.09
- surviving fraction (AFIMOXIFENE; 50 nM): 0.987 ± 0.24
- surviving fraction (AFIMOXIFENE; 100 nM): 0.749 ± 0.051
- surviving fraction (AFIMOXIFENE; 500 nM): 0.932 ± 0.04
- surviving fraction (AFIMOXIFENE; 1000 nM): 0.82 ± 0.027

Test System: G292 BONE
- surviving fraction (AFIMOXIFENE; 0.5 nM): 1.02 ± 0.016
- surviving fraction (AFIMOXIFENE; 1 nM): 1.01 ± 0.011
- surviving fraction (AFIMOXIFENE; 5 nM): 0.98 ± 0.033
- surviving fraction (AFIMOXIFENE; 10 nM): 1.02 ± 0.013
- surviving fraction (AFIMOXIFENE; 50 nM): 0.9545 ± 0.0072
- surviving fraction (AFIMOXIFENE; 100 nM): 1.015 ± 0.0096
- surviving fraction (AFIMOXIFENE; 500 nM): 0.903 ± 0.036
- surviving fraction (AFIMOXIFENE; 1000 nM): 0.931 ± 0.048
- surviving fraction ([1]; 0.5 nM): 1.03 ± 0.072
- surviving fraction ([1]; 1 nM): 0.969 ± 0.032
- surviving fraction ([1]; 5 nM): 1 ± 0.061
- surviving fraction ([1]; 10 nM): 1 ± 0.023
- surviving fraction ([1]; 50 nM): 1.03 ± 0.041
- surviving fraction ([1]; 100 nM): 0.994 ± 0.013
- surviving fraction ([1]; 500 nM): 1.018 ± 0.0097
- surviving fraction ([1]; 1000 nM): 0.975 ± 0.035

Test System: HCC38 BREAST
- surviving fraction (AFIMOXIFENE; 0.5 nM): 1.19 ± 0.1
- surviving fraction (AFIMOXIFENE; 1 nM): 1.1 ± 0.23
- surviving fraction (AFIMOXIFENE; 5 nM): 1.19 ± 0.19
- surviving fraction (AFIMOXIFENE; 10 nM): 1.2 ± 0.23
- surviving fraction (AFIMOXIFENE; 100 nM): 1.13 ± 0.18
- surviving fraction (AFIMOXIFENE; 500 nM): 0.99 ± 0.24
- surviving fraction (AFIMOXIFENE; 1000 nM): 0.952 ± 0.08
- surviving fraction ([1]; 0.5 nM): 1.09 ± 0.18
- surviving fraction ([1]; 1 nM): 1.19 ± 0.28
- surviving fraction ([1]; 5 nM): 1.1 ± 0.23
- surviving fraction ([1]; 10 nM): 1.02 ± 0.23
- surviving fraction ([1]; 50 nM): 0.855 ± 0.2
- surviving fraction ([1]; 100 nM): 1.07 ± 0.17
- surviving fraction ([1]; 500 nM): 0.923 ± 0.12
- surviving fraction ([1]; 1000 nM): 0.881 ± 0.13

Test System: HCC70 BREAST
- surviving fraction (AFIMOXIFENE; 0.5 nM): 1.05 ± 0.079
- surviving fraction (AFIMOXIFENE; 1 nM): 1.1 ± 0.027
- surviving fraction (AFIMOXIFENE; 5 nM): 1.08 ± 0.074
- surviving fraction (AFIMOXIFENE; 10 nM): 1.06 ± 0.03
- surviving fraction (AFIMOXIFENE; 50 nM): 1.19 ± 0.091
- surviving fraction (AFIMOXIFENE; 100 nM): 1.18 ± 0.062
- surviving fraction (AFIMOXIFENE; 500 nM): 1.04 ± 0.076
- surviving fraction (AFIMOXIFENE; 1000 nM): 1.03 ± 0.071
- surviving fraction ([1]; 0.5 nM): 1.08 ± 0.059
- surviving fraction ([1]; 1 nM): 0.975 ± 0.12
- surviving fraction ([1]; 5 nM): 1.07 ± 0.039
- surviving fraction ([1]; 10 nM): 1.09 ± 0.1
- surviving fraction ([1]; 50 nM): 1.08 ± 0.051
- surviving fraction ([1]; 100 nM): 1.12 ± 0.096
- surviving fraction ([1]; 500 nM): 1.03 ± 0.13
- surviving fraction ([1]; 1000 nM): 0.994 ± 0.052

Test System: HMLE3 BREAST
- surviving fraction (AFIMOXIFENE; 0.5 nM): 1.06 ± 0.032
- surviving fraction (AFIMOXIFENE; 1 nM): 1.11 ± 0.062
- surviving fraction (AFIMOXIFENE; 5 nM): 1.2 ± 0.014
- surviving fraction (AFIMOXIFENE; 10 nM): 1.06 ± 0.05
- surviving fraction (AFIMOXIFENE; 50 nM): 1.12 ± 0.06
- surviving fraction (AFIMOXIFENE; 100 nM): 1.2 ± 0.12
- surviving fraction (AFIMOXIFENE; 500 nM): 1.09 ± 0.1
- surviving fraction (AFIMOXIFENE; 1000 nM): 1.13 ± 0.1
- surviving fraction ([1]; 0.5 nM): 0.947 ± 0.037
- surviving fraction ([1]; 1 nM): 0.931 ± 0.073
- surviving fraction ([1]; 5 nM): 1 ± 0.013
- surviving fraction ([1]; 10 nM): 1.09 ± 0.038
- surviving fraction ([1]; 50 nM): 0.967 ± 0.066
- surviving fraction ([1]; 100 nM): 0.979 ± 0.081
- surviving fraction ([1]; 500 nM): 0.908 ± 0.049
- surviving fraction ([1]; 1000 nM): 0.834 ± 0.062

Test System: HMT3552 BREAST
- surviving fraction (AFIMOXIFENE; 0.5 nM): 1.05 ± 0.062
- surviving fraction (AFIMOXIFENE; 1 nM): 1.02 ± 0.053
- surviving fraction (AFIMOXIFENE; 10 nM): 1 ± 0.042
- surviving fraction (AFIMOXIFENE; 50 nM): 1.15 ± 0.07
- surviving fraction (AFIMOXIFENE; 100 nM): 1.18 ± 0.061
- surviving fraction (AFIMOXIFENE; 500 nM): 1.18 ± 0.034
- surviving fraction (AFIMOXIFENE; 1000 nM): 1 ± 0.076
- surviving fraction ([1]; 0.5 nM): 1.14
- surviving fraction ([1]; 1 nM): 1.08
- surviving fraction ([1]; 5 nM): 1.08
- surviving fraction ([1]; 10 nM): 1.1
- surviving fraction ([1]; 50 nM): 1.17
- surviving fraction ([1]; 100 nM): 1.18
- surviving fraction ([1]; 500 nM): 1.21
- surviving fraction ([1]; 1000 nM): 1.3

Test System: HS578T BREAST
- surviving fraction (AFIMOXIFENE; 0.5 nM): 1.11 ± 0.14
- surviving fraction (AFIMOXIFENE; 1 nM): 0.963 ± 0.32
- surviving fraction (AFIMOXIFENE; 5 nM): 1.15 ± 0.17
- surviving fraction (AFIMOXIFENE; 10 nM): 1.01 ± 0.1
- surviving fraction (AFIMOXIFENE; 50 nM): 1.07 ± 0.062
- surviving fraction (AFIMOXIFENE; 100 nM): 1.24 ± 0.11
- surviving fraction (AFIMOXIFENE; 500 nM): 1.19 ± 0.19
- surviving fraction (AFIMOXIFENE; 1000 nM): 1.21 ± 0.15
- surviving fraction ([1]; 0.5 nM): 0.891 ± 0.1
- surviving fraction ([1]; 1 nM): 0.952 ± 0.025
- surviving fraction ([1]; 5 nM): 0.965 ± 0.12
- surviving fraction ([1]; 10 nM): 0.902 ± 0.042
- surviving fraction ([1]; 50 nM): 0.803 ± 0.064
- surviving fraction ([1]; 100 nM): 0.88 ± 0.14
- surviving fraction ([1]; 500 nM): 0.931 ± 0.022
- surviving fraction ([1]; 1000 nM): 0.776 ± 0.078
